Source: publication PMC5055185, “Dual pharmacological inhibition of glutathione and thioredoxin systems synergizes to kill colorectal carcinoma stem cells” (Cancer Medicine, 2016)
Where “and” joins values, the source holds several entries; their conditions need not be identical. Identical values can stand only once.

How the values were obtained:
Assay type in all cases: cell-based, human
[1] = tested on: CTOS71 colorectal cancer tissue‐originated spheroids; test: cell survival (trypan blue exclusion, 5 days), CTOS71; conditions: for IC50: CTOS71, cellular survival, 5 days; for Ratio of survived cells (Drugs treated/Untreated), Average / Ratio of survived cells (Drugs treated/Untreated), single passage points #: CTOS#71
Source text: (§1) All experimental procedures were approved by the animal facility at Dokkyo Medical University (ID: 951) and were described elsewhere 10. The existence of CSCs has been experimentally proven through serial xenotransplantation and tumorigenesis 2, 14. […] These subcutaneous tumors were again subjected to enzymatic dissociation and some of the tumor cells were subcutaneously transplanted into other mice. […] Seven cases (CTOS:40, 42, 68, 71, 76, 86, 88) were used for in vitro experiments.
(§2) Modified procedures of CTOS culture 16 were described elsewhere 10. […] The culture medium was serum‐free advanced DMEM/F‐12 (GIBCO, Waltham, MA) supplemented with FGF‐2 (10 ng/mL, ReproCell, Yokohama, Japan), penicillin ([…], Wako, Osaka, Japan), streptomycin (0.1 mg/mL,Wako), gentamicin (50 μg/mL, Wako), and fungizone (0.25 μg/mL, GIBCO). DLD‐1 and HCT116 CRC cell lines were purchased from JCRB Cell Bank (Osaka, Japan) and RIKEN BioResource Center (Ibaraki, Japan), respectively. In order to estimate pharmacological side effects against normal tissues, human diploid fibroblasts were purchased (JCRB Cell Bank) as model cells. The origins of the fibroblasts were as follows: OUMS‐36 (embryo), TIG‐3 (fetal lung), TIG‐111 (dermal fibroblasts [DFs] from individual), TIG‐119 (DFs from individual), and TIG‐102 (DFs from individual). Adult DFs were purchased from Kurabo (Osaka, Japan). CRC cell lines and fibroblasts were maintained under supplier‐recommended culture conditions. Since the culture conditions are different between fibroblasts and CTOSs, we need to be cautious about the interpretation of data (i.e., lateral comparison between them). […] Colorectal CTOSs display augmented survival through maintaining epithelial structure with E‐cadherin 16. On the other hand, the establishment of conventional cell lines (adherent culture) are much less efficient because constant cell division and autonomous survival are required for the procedure. When we choose CTOSs instead of cancer cell lines, we lose the equivalent condition (adherent culture) as a trade‐off.
(§3) Each drug's half‐maximal inhibitory concentration (IC50) was calculated based on live cell number ratios (drug treated/untreated × 100%) obtained from serial dilution of drug concentration. The length of drug exposure was 5 days. Each number of live cells was counted automatically by trypan blue exclusion (LUNA automated cell counter, Logos Biosystems, Anyang, South Korea). Cancer spheroids were dispersed with serial treatments (20 min each) of TrypLE™ and Accumax™. Thus, IC50 was determined based on cellular survival, but not on proliferation.

[2] = tested on: CTOS76 colorectal cancer tissue‐originated spheroids; test: cell survival (trypan blue exclusion, 5 days), CTOS76; conditions: for IC50: CTOS76, cellular survival, 5 days
Source text: as §1, §2, §3

[3] = tested on: phosphorylated NRF2 in embryonic fibroblasts (OUMS and TIG3); test: NRF2 phosphorylation by western blotting, embryonic fibroblasts; conditions: 24 hours, Auranofin 2µM, Piperlongumine 5µM
[4] = tested on: NRF2 target genes in colorectal CTOSs; test: qRT-PCR of NRF2 and TP53 target genes in colorectal CTOSs
Method: Total RNA was purified using RNAiso Plus (Takara, Osaka, Japan). Reverse transcription was performed using PrimeScript™ with gDNA Eraser (Takara). For quantifying the copy number of each mRNA, we used a StepOne™ Real‐Time PCR System (Applied Biosystems, Waltham, MA) and the Taqman® method. Data were calculated according to the modified delta‐cycle of threshold (ΔCT) method. Normalized Log2 expression was defined as follows: (Log2 expression of a gene of interest) = 30 (arbitrary constant) + (CT of 18S rRNA) − (CT of a gene of interest). We used Log2 parameter for statistical analysis because mRNA expression follows a log‐normal distribution, whereas ΔCT follows normal distribution. A gene‐specific fluorescent probe was designed using a web‐based program (https://qpcr.probefinder.com/organism.jsp). […] Gene‐specific Taqman® probes were purchased from Life Technologies, (Waltham, MA, for Cat#, see Table S1 SpreadSheet2). For PCR, Thunderbird® Probe qPCR mix (Toyobo, Osaka, Japan) was used and the PCR conditions consisted of 40 cycles of two steps (95°C for 15 sec and 60°C for 50 sec).
In order to judge the effect of drug treatments on gene expression, a repeated measures one‐way analysis of variance (ANOVA) was used to determine the variance of Log2 expression from four different groups (untreated, auranofin, CB83, and piperlongumine) using SPSS. Subsequently, the effect of each drug was determined by a paired t test as a post hoc analysis. The P‐values < 0.05 were defined as statistically significant.
In order to estimate NRF2 compensation induced by pharmacological inhibition of TXNRD (auranofin), G6PD (CB83), or GSTπ (piperlongumine), we quantified gene expression of NRF2 target genes. Activation of NRF2 protein was confirmed by NRF2 phosphorylation (Fig. S5A).

[5] = tested on: phosphorylated NRF2 in colorectal CTOSs; test: NRF2 phosphorylation by western blotting, colorectal CTOSs; conditions: 24 hours, Auranofin 2µM, Piperlongumine 5µM, CB83 12.5 µM
Method: From colorectal CTOS, whole‐cell proteins were dissolved with solubilizer (7 mol/L urea, 2 mol/L thiourea, 2% Triton X‐100, Wako) and the entangled genomic DNA was sheared by sonication for 30 min. Procedures for immunoblotting have been described elsewhere 6, 10. Primary antibodies used in this study are as follows: phosphorylated NRF2 from Abcam (#76026) and Histone H3 from Cell Signaling Technologies (#4499, Danvers, MA). Phosphorylation of NRF2 is well correlated with nuclear accumulation in HCCs 6. Representative data are shown in the figures; all experiments were reproduced at least twice with different passage points.
Colorectal CTOSs were incubated with each inhibitor for 24 hours. Whole cell proteins were extracted and each well was loaded with same amount of proteins (40 µg for NRF2 and 10 µg for H3). Phosphorylation of NRF2 was measured by western blotting. Blotting for histone H3 serves as loading control.

[6] = higher dose (auranofin 4, CB83 25, piperlongumine 10 μmol/L) for 24 h
[7] = lower dose (auranofin 2, CB83 12.5, piperlongumine 5 μmol/L) for 48 h

Structure (SMILES)	IC50 [1]	IC50 [2]	NRF2 phosphorylation [3]	G6PD mRNA expression change [4, 6]	GCLM mRNA expression change [4, 6]	TXNRD1 mRNA expression change [4, 6]	G6PD mRNA expression change [4, 7]	GCLM mRNA expression change [4, 7]	TXNRD1 mRNA expression change [4, 7]	NRF2 phosphorylation [5]	further results
CC[PH](CC)(CC)[Au][S][C@@H]1O[C@H](COC(C)=O)[C@@H](OC(C)=O)[C@H](OC(C)=O)[C@H]1OC(C)=O [Aura, Auranofin]	2.21 µM	2.83 µM	less efficiently phosphorylated	up‐regulated	up‐regulated	up‐regulated	up‐regulated	up‐regulated	up‐regulated	efficiently phosphorylated	Ratio of survived cells (Drugs treated/Untreated), Average ([1]; Aura 1 microM): 70.2%; Ratio of survived cells (Drugs treated/Untreated), single passage points # ([1]; Aura 1 microM): 81% and 77% and 62% and 56% and 75%; Ratio of survived cells (Drugs treated/Untreated), Average ([1]; Aura 2 microM): 55.3333%; Ratio of survived cells (Drugs treated/Untreated), Average ([1]; Aura 4 microM): 33.1429%; Ratio of survived cells (Drugs treated/Untreated), Average ([2]; CTOS#76, Aura 1 microM): 68.4%; Ratio of survived cells (Drugs treated/Untreated), Average ([2]; CTOS#76, Aura 2 microM): 56.4%; Ratio of survived cells (Drugs treated/Untreated), Average ([2]; CTOS#76, Aura 4 microM): 39.5%; Ratio of survived cells (Drugs treated/Untreated), single passage points # ([2]; CTOS#76, Aura 4 microM): 36% and 56% and 30%; GCLC mRNA expression change [4, 7]: up‐regulated; ME1 mRNA expression change [4, 7]: up‐regulated; TXN mRNA expression change [4, 7]: up‐regulated
COc1cc(/C=C/C(=O)N2CCC=CC2=O)cc(OC)c1OC [Pipe, Piperlongumine]	6.01 µM	7.15 µM	not	up‐regulated	up‐regulated	up‐regulated	up‐regulated	up‐regulated	up‐regulated	efficiently phosphorylated	Ratio of survived cells (Drugs treated/Untreated), Average ([1]; Pipe 2.5 microM): 80.8%; Ratio of survived cells (Drugs treated/Untreated), single passage points # ([1]; Pipe 2.5 microM): 96% and 59% and 102% and 88%; Ratio of survived cells (Drugs treated/Untreated), Average ([1]; Pipe 5 microM): 60.8%; Ratio of survived cells (Drugs treated/Untreated), Average ([1]; Pipe 10 microM): 27.8%; Ratio of survived cells (Drugs treated/Untreated), single passage points # ([1]; Pipe 10 microM): 21% and 20% and 35% and 27% and 36%; Ratio of survived cells (Drugs treated/Untreated), Average ([2]; CTOS#76, Pipe 2.5 microM): 81.75%; Ratio of survived cells (Drugs treated/Untreated), Average ([2]; CTOS#76, Pipe 5 microM): 73%; Ratio of survived cells (Drugs treated/Untreated), Average ([2]; CTOS#76, Pipe 10 microM): 32.3333%; NRF2 phosphorylation ([3]; listed as Piperlongmine): almost negligible
